Source: patent publication US12291519B2, “2-hydroxycycloalkane-1-carbamoyl” (Idorsia Pharmaceuticals Ltd, priority 2019, dated 2025)
pIC50: −log10 of the molar value.

What was measured:
human Gal-1 (hGal-1) = assay: Competitive binding assay: biotinylated hGal-1 binding to microplate-adsorbed asialofetuin (ASF); settings: Activity on hGal-1; binding of biotinylated hGal-1 to ASF-coated plates; mean values
Procedure, shortened: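 Inhibition measured as loss of hGal-1 (biotinylated, 300–1000 ng/mL, wild type or Cys→Ser mutant) binding to adsorbed asialofetuin over 3 h at 4 °C. Bound lectin detected with streptavidin-HRP and ABTS (410 nm, 30–45 min); IC50 values averaged across repeat measurements.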

human Gal-3 (hGal-3) = human Gal-3 (hGal-3) (Homo sapiens (Human), UniProt P17931); assay: Competitive binding assay: biotinylated hGal-3 binding to microplate-adsorbed asialofetuin (ASF); settings: Activity on hGal-3; binding of biotinylated hGal-3 to ASF-coated plates; mean values
Procedure, shortened: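 Serially diluted compounds competed with biotinylated human Gal-3 for binding to plate-adsorbed asialofetuin over 3 h at 4 °C. Bound Gal-3 was detected with streptavidin-peroxidase (80 ng/mL, 1 h, 4 °C) and ABTS substrate. IC50 values are means of several measurements.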

Sequence of human Gal-3 (hGal-3) (P17931 whole entry): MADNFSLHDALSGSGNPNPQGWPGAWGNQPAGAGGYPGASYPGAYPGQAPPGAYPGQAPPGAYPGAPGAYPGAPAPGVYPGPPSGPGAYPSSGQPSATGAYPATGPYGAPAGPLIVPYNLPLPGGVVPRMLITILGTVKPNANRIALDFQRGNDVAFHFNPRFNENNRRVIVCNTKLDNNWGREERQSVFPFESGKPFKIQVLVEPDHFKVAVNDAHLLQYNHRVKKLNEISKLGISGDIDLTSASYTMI
Sequence of human Gal-1 (hGal-1) (P09382 2-135 limits assumed): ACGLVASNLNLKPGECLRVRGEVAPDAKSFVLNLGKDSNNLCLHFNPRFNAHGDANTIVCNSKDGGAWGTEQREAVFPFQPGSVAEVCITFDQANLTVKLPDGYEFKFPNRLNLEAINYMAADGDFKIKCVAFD

Compound	pIC50 (human Gal-1 (hGal-1))	pIC50 (human Gal-3 (hGal-3))
CO[C@@H]1[C@@H](n2cc(-c3cc(F)c(F)c(F)c3)nn2)[C@@H](O)[C@@H](CO)O[C@H]1C(=O)N(Cc1cccc(Cl)c1)[C@H]1CCCC[C@@H]1O [Example 53, (2R,3R,4S,5R,6R)-N-(3-chlorobenzyl)-5-hydroxy-N-((1S,2S)-2-hydroxycyclohexyl)-6-(hydroxymethyl)-3-methoxy-4-(4-(3,4,5-trifluorophenyl)-1H-1,2,3-triazol-1-yl)tetrahydro-2H-pyran-2-carboxamide]	4.97	6.06
CO[C@@H]1[C@@H](n2cc(-c3cc(F)c(F)c(F)c3)nn2)[C@@H](O)[C@@H](CO)O[C@H]1C(=O)N(Cc1cccc(Cl)c1)[C@H]1CCCC[C@@H]1O [Example 54]	5.58	7.70
CC(=O)O[C@@H]1[C@@H](n2cc(-c3cc(F)c(F)c(F)c3)nn2)[C@@H](O)[C@@H](CO)O[C@H]1C(=O)N(Cc1ccccc1C(F)(F)F)[C@H]1CCCC[C@@H]1O [Example 55, (2R,3R,4S,5R,6R)-5-hydroxy-2-(((1S,2S)-2-hydroxycyclohexyl)(2-(trifluoromethyl)benzyl)carbamoyl)-6-(hydroxymethyl)-4-(4-(3,4,5-trifluorophenyl)-1H-1,2,3-triazol-1-yl)tetrahydro-2H-pyran-3-yl acetate]	6.08	7.51
CO[C@@H]1[C@@H](n2cc(-c3cc(F)c(F)c(F)c3)nn2)[C@@H](O)[C@@H](CO)O[C@H]1C(=O)N(c1ccc(F)c(F)c1)[C@H]1CCCC[C@@H]1O [Example 56]	6.38	7.38
CO[C@@H]1[C@@H](n2cc(-c3cc(F)c(F)c(F)c3)nn2)[C@@H](O)[C@@H](CO)O[C@H]1C(=O)N(c1cccc(Cl)c1)[C@H]1CCCC[C@@H]1O [Example 58]	6.14	7.68
CO[C@@H]1[C@@H](n2cc(-c3cc(F)c(F)c(F)c3)nn2)[C@@H](O)[C@@H](CO)O[C@H]1C(=O)N(c1cc(Cl)cc(Cl)c1)[C@H]1CCCC[C@@H]1O [Example 60]	6.18	7.80
CC(=O)O[C@@H]1[C@@H](n2cc(-c3cccc(F)c3)nn2)[C@@H](O)[C@@H](CO)O[C@H]1C(=O)N(Cc1ccccc1C(F)(F)F)[C@H]1CCCC[C@@H]1O [Example 62, (2R,3R,4S,5R,6R)-4-(4-(3-fluorophenyl)-1H-1,2,3-triazol-1-yl)-5-hydroxy-2-(((1S,2S)-2-hydroxycyclohexyl)(2-(trifluoromethyl)benzyl)carbamoyl)-6-(hydroxymethyl)tetrahydro-2H-pyran-3-yl acetate]	6.03	6.85
CC(=O)O[C@@H]1[C@@H](n2cc(-c3cc(F)cc(F)c3)nn2)[C@@H](O)[C@@H](CO)O[C@H]1C(=O)N(Cc1ccccc1C(F)(F)F)[C@H]1CCCC[C@@H]1O [Example 63, (2R,3R,4S,5R,6R)-4-(4-(3,5-difluorophenyl)-1H-1,2,3-triazol-1-yl)-5-hydroxy-2-(((1S,2S)-2-hydroxycyclohexyl)(2-(trifluoromethyl)benzyl)carbamoyl)-6-(hydroxymethyl)tetrahydro-2H-pyran-3-yl acetate]	5.99	6.86
COc1cnc2ccc(F)c(CN(C(=O)[C@@H]3O[C@H](CO)[C@H](O)[C@H](n4cc(-c5cc(F)c(F)c(F)c5)nn4)[C@H]3OC)[C@H]3CCCC[C@@H]3O)c2n1 [Example 64, (2R,3R,4S,5R,6R)-N-((6-fluoro-3-methoxyquinoxalin-5-yl)methyl)-5-hydroxy-N-((1S,2S)-2-hydroxycyclohexyl)-6-(hydroxymethyl)-3-methoxy-4-(4-(3,4,5-trifluorophenyl)-1H-1,2,3-triazol-1-yl)tetrahydro-2H-pyran-2-carboxamide]	6.01	6.91
CO[C@@H]1[C@@H](n2cc(-c3cc(F)c(F)c(F)c3)nn2)[C@@H](O)[C@@H](CO)O[C@H]1C(=O)N(Cc1nc2ccccc2cc1Cl)[C@H]1CCCC[C@@H]1O [Example 65, (2R,3R,4S,5R,6R)-N-((3-chloroquinolin-2-yl)methyl)-5-hydroxy-N-((1S,2S)-2-hydroxycyclohexyl)-6-(hydroxymethyl)-3-methoxy-4-(4-(3,4,5-trifluorophenyl)-1H-1,2,3-triazol-1-yl)tetrahydro-2H-pyran-2-carboxamide]	5.17	6.71
O=C([C@@H]1O[C@H](CO)[C@H](O)[C@H](n2cc(-c3cc(F)c(F)c(Cl)c3)nn2)[C@H]1O)N(Cc1ccccc1C(F)(F)F)[C@H]1CCCC[C@@H]1O [Example 66, (2R,3R,4S,5R,6R)-4-(4-(3-chloro-4,5-difluorophenyl)-1H-1,2,3-triazol-1-yl)-3,5-dihydroxy-N-((1S,2S)-2-hydroxycyclohexyl)-6-(hydroxymethyl)-N-(2-(trifluoromethyl)benzyl)tetrahydro-2H-pyran-2-carboxamide]	6.27	7.02
CC(=O)O[C@@H]1[C@@H](n2cc(-c3cc(F)c(Cl)c(F)c3)nn2)[C@@H](O)[C@@H](CO)O[C@H]1C(=O)N(Cc1ccccc1C(F)(F)F)[C@H]1CCCC[C@@H]1O [Example 68, (2R,3R,4S,5R,6R)-4-(4-(4-chloro-3,5-difluorophenyl)-1H-1,2,3-triazol-1-yl)-5-hydroxy-2-(((1S,2S)-2-hydroxycyclohexyl)(2-(trifluoromethyl)benzyl)carbamoyl)-6-(hydroxymethyl)tetrahydro-2H-pyran-3-yl acetate]	5.93	7.36
O=C([C@@H]1O[C@H](CO)[C@H](O)[C@H](n2cc(-c3cc(F)c(Br)c(F)c3)nn2)[C@H]1O)N(Cc1ccccc1C(F)(F)F)[C@H]1CCCC[C@@H]1O [Example 69, (2R,3R,4S,5R,6R)-4-(4-(4-bromo-3,5-difluorophenyl)-1H-1,2,3-triazol-1-yl)-3,5-dihydroxy-N-((1S,2S)-2-hydroxycyclohexyl)-6-(hydroxymethyl)-N-(2-(trifluoromethyl)benzyl)tetrahydro-2H-pyran-2-carboxamide]	5.59	7.08
O=C([C@@H]1O[C@H](CO)[C@H](O)[C@H](n2cc(-c3ccc(Br)c(F)c3)nn2)[C@H]1O)N(Cc1ccccc1C(F)(F)F)[C@H]1CCCC[C@@H]1O [Example 70, (2R,3R,4S,5R,6R)-4-(4-(4-bromo-3-fluorophenyl)-1H-1,2,3-triazol-1-yl)-3,5-dihydroxy-N-((1S,2S)-2-hydroxycyclohexyl)-6-(hydroxymethyl)-N-(2-(trifluoromethyl)benzyl)tetrahydro-2H-pyran-2-carboxamide]	6.21	7.05
O=C([C@@H]1O[C@H](CO)[C@H](O)[C@H](n2cc(-c3nc(Cl)cs3)nn2)[C@H]1O)N(Cc1ccccc1C(F)(F)F)[C@H]1CCCC[C@@H]1O [Example 71, (2R,3R,4S,5R,6R)-4-(4-(4-chlorothiazol-2-yl)-1H-1,2,3-triazol-1-yl)-3,5-dihydroxy-N-((1S,2S)-2-hydroxycyclohexyl)-6-(hydroxymethyl)-N-(2-(trifluoromethyl)benzyl)tetrahydro-2H-pyran-2-carboxamide]	5.88	6.84
COc1cccc(N(C(=O)[C@@H]2O[C@H](CO)[C@H](O)[C@H](n3cc(-c4cccc(F)c4)nn3)[C@H]2OC)[C@H]2CCCC[C@@H]2O)c1 [Example 73, (2R,3R,4S,5R,6R)-4-(4-(3-fluorophenyl)-1H-1,2,3-triazol-1-yl)-5-hydroxy-N-((1S,2S)-2-hydroxycyclohexyl)-6-(hydroxymethyl)-3-methoxy-N-(3-methoxyphenyl)tetrahydro-2H-pyran-2-carboxamide]	5.81	7.16
CO[C@@H]1[C@@H](n2cc(-c3cccc(F)c3)nn2)[C@@H](O)[C@@H](CO)O[C@H]1C(=O)N(c1cc(Cl)cc(C#N)c1)[C@H]1CCCC[C@@H]1O [Example 74]	6.79	7.36
CO[C@@H]1[C@@H](n2cc(-c3cccc(F)c3C)nn2)[C@@H](O)[C@@H](CO)O[C@H]1C(=O)N(c1cc(Cl)cc(C#N)c1)[C@H]1CCCC[C@@H]1O [Example 75, (2R,3R,4S,5R,6R)-N-(3-chloro-5-cyanophenyl)-4-(4-(3-fluoro-2-methylphenyl)-1H-1,2,3-triazol-1-yl)-5-hydroxy-N-((1S,2S)-2-hydroxycyclohexyl)-6-(hydroxymethyl)-3-methoxytetrahydro-2H-pyran-2-carboxamide]	6.59	7.30
COc1ccc(F)cc1-c1cn([C@H]2[C@@H](O)[C@@H](CO)O[C@@H](C(=O)N(c3cc(Cl)cc(C#N)c3)[C@H]3CCCC[C@@H]3O)[C@@H]2OC)nn1 [Example 76, (2R,3R,4S,5R,6R)-N-(3-chloro-5-cyanophenyl)-4-(4-(5-fluoro-2-methoxyphenyl)-1H-1,2,3-triazol-1-yl)-5-hydroxy-N-((1S,2S)-2-hydroxycyclohexyl)-6-(hydroxymethyl)-3-methoxytetrahydro-2H-pyran-2-carboxamide]	6.05	7.38
COc1cccc(N(C(=O)[C@@H]2O[C@H](CO)[C@H](O)[C@H](n3cc(-c4cc(F)cc(F)c4)nn3)[C@H]2OC)[C@H]2CCCC[C@@H]2O)c1 [Example 79]	5.68	7.21
CO[C@@H]1[C@@H](n2cc(-c3cc(F)cc(F)c3)nn2)[C@@H](O)[C@@H](CO)O[C@H]1C(=O)N(c1cc(Cl)cc(C#N)c1)[C@H]1CCCC[C@@H]1O [Example 80, (2R,3R,4S,5R,6R)-N-(3-chloro-5-cyanophenyl)-4-(4-(3,5-difluorophenyl)-1H-1,2,3-triazol-1-yl)-5-hydroxy-N-((1S,2S)-2-hydroxycyclohexyl)-6-(hydroxymethyl)-3-methoxytetrahydro-2H-pyran-2-carboxamide]	6.42	7.60
